From PMC6009888, “Design, synthesis, and pharmacological evaluation of 2-amino-5-nitrothiazole derived semicarbazones as dual inhibitors of monoamine oxidase and cholinesterase: effect of the size of aryl binding site” (Journal of Enzyme Inhibition and Medicinal Chemistry, 2017)
Several values for one entry are separate records, joined by “and”; a condition that tells them apart may be missing. Equal entries are not always repeated. Where two headings read alike, the source gives them in different places.

How the values were obtained:
MAO-A = molecular target: T1, MAO-A (Rattus norvegicus, UniProt P21396); test: In vitro MAO-A inhibition assay (rat brain mitochondria, serotonin substrate); type: biochemical; conditions: for IC50: rat brain mitochondria, serotonin substrate, mean ± SEM, triplicate
T1 construct: employing crude rat brain mitochondrial suspension; from tissue; host or cells: brain mitochondria of adult Wistar rats
T1 sequence (P21396 1-526): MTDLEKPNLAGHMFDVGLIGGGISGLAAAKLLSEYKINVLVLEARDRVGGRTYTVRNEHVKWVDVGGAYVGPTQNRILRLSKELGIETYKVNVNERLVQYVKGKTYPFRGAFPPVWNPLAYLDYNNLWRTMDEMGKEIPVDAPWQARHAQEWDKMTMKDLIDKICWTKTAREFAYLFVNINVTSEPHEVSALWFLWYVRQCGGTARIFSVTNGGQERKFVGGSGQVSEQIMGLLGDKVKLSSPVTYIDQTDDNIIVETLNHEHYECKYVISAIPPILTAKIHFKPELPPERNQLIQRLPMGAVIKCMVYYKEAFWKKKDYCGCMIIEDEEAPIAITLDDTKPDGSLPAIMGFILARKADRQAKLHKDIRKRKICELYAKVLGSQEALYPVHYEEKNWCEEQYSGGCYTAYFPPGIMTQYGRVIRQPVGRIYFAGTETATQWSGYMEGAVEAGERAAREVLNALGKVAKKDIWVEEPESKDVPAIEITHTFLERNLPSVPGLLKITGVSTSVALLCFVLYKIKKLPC
Method in brief: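 Wistar rat brain mitochondria (0.80 mg protein/ml working suspension) were incubated with inhibitor at five concentrations in 50 mM Tris-HCl pH 8.2, 37 °C, 30 min. Substrates were serotonin (added as 4 mM) for MAO-A and benzylamine (added as 0.1 M) for MAO-B. After HCl stop, absorbance was read at 280 nm (5-hydroxyindolacetic acid) or 250 nm (benzaldehyde), in triplicate.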

rat brain AChE = molecular target: T2, rat brain AChE (Rattus norvegicus, UniProt P37136); test: biochemical; type: biochemical; conditions: for IC50: rat brain AChE, ACTI substrate, mean ± SEM, triplicate
T2 construct: the resulting clear supernatants obtained were used as enzyme sources; from tissue; host or cells: rat brain cortex homogenate, 10,000 g supernatant
Method in brief: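 Rat brain cortex homogenate (10,000 g supernatant) served as the AChE source. Ellman-type assay in 20 mM sodium phosphate pH 7.4 with DTNB (10 mM stock), started with acetylthiocholine iodide (0.8 mM stock) and run 15 min at 25 °C. IC50 from triplicates, mean ± SEM.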

[1] = In vitro DPPH radical scavenging assay; conditions: test sample 100 µg/ml, 100 µM methanolic DPPH, 30 min, 517 nm
Description: Antioxidant activity of the synthesised compounds (10 mg/ml) was evaluated using the radical scavenging capability against the stable free radical, 2,2′-diphenyl-1-picryl hydrazyl (DPPH·). The DPPH· scavenging capability was determined using UV based spectrophotometric assay. About 200 µl of the test sample solution (100 µg/ml) was added to 4 ml of 100 µM methanolic DPPH. […] Ascorbic acid (100 µg/ml) was used as reference. The percentage inhibition of DPPH activity was estimated using the formula: Percent (%) inhibition of DPPH activity = Acontrol-Asample/Acontrol×100 where Acontrol is the absorbance of DPPH· in methanol without an antioxidant and Asample is the absorbance of DPPH· in the presence of an antioxidant.

[2] = read-out: MAO-A In vitro IC50 (µM) ± SEM
[3] = read-out: AChE In vitro IC50 (µM) ± SEM
[4] = time-dependent inhibition, pre-incubation 0, 15, 30, 60 min

T2 sequence (P37136 32-614): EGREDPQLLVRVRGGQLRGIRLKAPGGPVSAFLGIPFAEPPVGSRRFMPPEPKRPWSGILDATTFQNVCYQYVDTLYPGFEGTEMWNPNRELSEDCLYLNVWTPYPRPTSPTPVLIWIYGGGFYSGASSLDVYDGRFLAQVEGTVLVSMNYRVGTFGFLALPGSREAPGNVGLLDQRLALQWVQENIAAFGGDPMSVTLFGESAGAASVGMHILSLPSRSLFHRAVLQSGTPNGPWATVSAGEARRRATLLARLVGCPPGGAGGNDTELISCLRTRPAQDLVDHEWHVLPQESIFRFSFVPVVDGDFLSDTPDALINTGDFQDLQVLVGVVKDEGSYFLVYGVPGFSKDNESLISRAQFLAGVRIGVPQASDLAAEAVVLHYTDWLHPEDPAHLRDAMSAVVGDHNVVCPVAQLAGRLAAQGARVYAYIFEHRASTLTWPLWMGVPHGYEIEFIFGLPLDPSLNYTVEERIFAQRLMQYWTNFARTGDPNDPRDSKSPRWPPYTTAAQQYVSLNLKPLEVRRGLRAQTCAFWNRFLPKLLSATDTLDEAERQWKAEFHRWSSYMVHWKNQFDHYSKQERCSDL

Row | Compound | IC50 (MAO-A; [2]) | IC50 (rat brain AChE; [3]) | % inhibition of DPPH activity [1] | AChE: fold decrease in activity versus bromo substitution (compound 4) (rat brain AChE; halogen at carbimino terminal phenyl ring) | IC50 (MAO-A; MAO-A In vitro IC50 (µM) ± SEM) | IC50 (rat brain AChE; AChE In vitro IC50 (µM) ± SEM) | AChE: fold increase in activity relative to compound 17 (rat brain AChE; diaryl analogues) | Mode of MAO-A inhibition (MAO-A; Lineweaver–Burk plots, serotonin) | Ki (MAO-A; kinetic study, non-competitive model, GraphPad Prism, read-out: Ki (dissociation constant) against MAO-A) | Reversibility of MAO-A inhibition (MAO-A; [4]) | Mode of AChE inhibition (rat brain AChE; Lineweaver–Burk plots, ACTI) | Reversibility of AChE inhibition (rat brain AChE; [4])
1 | CC(=NNC(=O)Nc1ncc([N+](=O)[O-])s1)c1ccc(Br)cc1 [Compound 4, 1-(1-(4-Bromophenyl)ethylidene)-4-(5-nitrothiazol-2-yl)semicarbazide] | < 100 µM and 70.2 µM | 0.34 ± 0.007 µM | 58.68% |  |  |  |  |  |  |  |  | 
2 | CC(=NNC(=O)Nc1ncc([N+](=O)[O-])s1)c1ccc(Cl)cc1 [Compound 5, 1-(1-(4-Chlorophenyl)ethylidene)-4-(5-nitrothiazol-2-yl)semicarbazide] | 4761 ± 10.8 µM | 356 ± 4.73 µM | 51.83% | > 1000 fold |  |  |  |  |  |  |  | 
3 | O=C(NN=C(c1ccc(Cl)cc1)c1ccc(Cl)cc1)Nc1ncc([N+](=O)[O-])s1 [Compound 19, 1-(Bis(4-chlorophenyl)methylene)-4-(5-nitrothiazol-2-yl)semicarbazide] |  |  | 24.03% |  | > 100 µM and 50700 µM | 1.45 ± 0.047 µM | ~7.95 fold |  |  |  |  | 
4 | O=C(NN=C1C(=O)Nc2ccc(Br)cc21)Nc1ncc([N+](=O)[O-])s1 [Compound 21, 1-(5-Bromo-2-oxoindolin-3-ylidene)-4–(5-nitrothiazol-2-yl)semicarbazide] | < 100 µM and 57.2 µM | 0.264 µM | 65.65% |  |  |  |  | non-competitively | 17.3 ± 1.79 µM | reversible | mixed-type | reversible
